Counter-ions that a name gives are not always drawn.

This note sets out measurements from US8063071B2 (GlaxoSmithKline, LLC, priority 2007, dated 2011).

Test [1] deals with human monocyte stimulated cytokine production (TNF-α). In words: Monocyte assay (LPS-stimulated TNF-α production). The format is cell-based. Particulars: 24 h, 200 ng/mL LPS, TNF-α by ELISA. Summed up:
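Human CD14+ monocytes were purified from blood and plated at 1×10^6 cells/mL in RPMI 1640 with 10% FBS. Compound was added 30 min before stimulation with 200 ng/mL LPS (0.1% DMSO final), followed by 24 hrs at 37 C. Supernatant TNF-α was measured by ELISA, and viability by trypan blue exclusion.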
A general note: An ELISA detects its analyte on a solid surface through an enzyme-linked reagent.

For test [2], the target named is T1, Recombinant human IKKβ (residues 1-737) (Homo sapiens, UniProt O14920).
T1 construct: Recombinant human IKKβ (residues 1-737); GST (C); made in house
T1 sequence (O14920 1-737): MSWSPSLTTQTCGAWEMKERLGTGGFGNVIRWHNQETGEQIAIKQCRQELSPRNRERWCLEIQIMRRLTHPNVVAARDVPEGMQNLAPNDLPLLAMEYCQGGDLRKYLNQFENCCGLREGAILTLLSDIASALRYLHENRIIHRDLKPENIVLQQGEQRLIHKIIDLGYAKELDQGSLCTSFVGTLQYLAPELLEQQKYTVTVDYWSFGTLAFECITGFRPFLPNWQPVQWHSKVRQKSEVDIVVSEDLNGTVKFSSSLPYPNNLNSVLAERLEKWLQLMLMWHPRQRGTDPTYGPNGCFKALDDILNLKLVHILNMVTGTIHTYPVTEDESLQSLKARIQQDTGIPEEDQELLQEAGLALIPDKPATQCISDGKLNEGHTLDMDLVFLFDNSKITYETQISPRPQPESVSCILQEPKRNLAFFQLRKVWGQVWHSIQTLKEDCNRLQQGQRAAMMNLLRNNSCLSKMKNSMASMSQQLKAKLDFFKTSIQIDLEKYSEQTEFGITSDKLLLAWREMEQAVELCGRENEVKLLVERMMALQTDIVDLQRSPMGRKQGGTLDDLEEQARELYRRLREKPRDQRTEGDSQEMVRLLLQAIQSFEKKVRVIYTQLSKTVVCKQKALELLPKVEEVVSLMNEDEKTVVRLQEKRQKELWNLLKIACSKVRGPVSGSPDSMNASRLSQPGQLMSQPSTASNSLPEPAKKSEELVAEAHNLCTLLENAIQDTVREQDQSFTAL
The test can be described thus: IKK2 assay (TR-FRET). The class given is biochemical. Particulars: ATP 1 μM final, read-out: pIC50 against IKK2 (converted). The procedure, abridged: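 Baculovirus-expressed C-terminal GST-tagged IKKβ (0.5-5 nM final) in HEPES pH 7.4, MgCl2, CHAPS, DTT, BSA with 1.7% DMSO; 25 nM GST-IB substrate and 1 μM ATP, 15 min at room temperature. EDTA stop; phospho-Ser32/36 detected by Eu-antibody/APC-anti-GST TR-FRET, 665/620 nm ratio.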
In general terms: TR-FRET usually uses a lanthanide donor and a delayed reading to cut background.

For the compound `CCS(=O)(=O)N1CCC(c2c[nH]c3c(C(N)=O)cc(-c4ccc(CN5CCCC5)s4)cc23)CC1` [Example 239, 3-[1-(ethylsulfonyl)-4-piperidinyl]-5-[5-(1-pyrrolidinylmethyl)-2-thienyl]-1H-indole-7-carboxamide trifluoroacetate], the IC50 was ≤ 1.5 µM in test [1] and ≤ 10 µM in test [2].

For the compound `CCS(=O)(=O)N1CCC(c2c[nH]c3c(C(N)=O)cc(-c4ccc(CN(C)C)s4)cc23)CC1` [Example 240, 5-{5-[(dimethylamino)methyl]-2-thienyl}-3-[1-(ethylsulfonyl)-4-piperidinyl]-1H-indole-7-carboxamide trifluoroacetate], the IC50 in test [1] was ≤ 1.5 µM; in test [2], ≤ 10 µM.

Consider `CCCNCc1ccc(-c2cc(C(N)=O)c3[nH]cc(C4CCN(S(=O)(=O)CC)CC4)c3c2)s1` [Example 241, 3-[1-(ethylsulfonyl)-4-piperidinyl]-5-{5-[(propylamino)methyl]-2-thienyl}-1H-indole-7-carboxamide trifluoroacetate], for which the values for the IC50 in test [1] and in test [2] were ≤ 1.5 µM and ≤ 10 µM, respectively.

As for `CCN(CC)Cc1ccc(-c2cc(C(N)=O)c3[nH]cc(C4CCN(S(=O)(=O)CC)CC4)c3c2)s1` [Example 242, 5-{5-[(diethylamino)methyl]-2-thienyl}-3-[1-(ethylsulfonyl)-4-piperidinyl]-1H-indole-7-carboxamide trifluoroacetate], the IC50 in test [1] is ≤ 1.5 µM; in test [2], ≤ 10 µM.

As for `CCS(=O)(=O)N1CCC(c2c[nH]c3c(C(N)=O)cc(-c4coc(CNCC(C)(C)C)c4)cc23)CC1` [Example 244, 5-(5-{[(2,2-dimethylpropyl)amino]methyl}-3-furanyl)-3-[1-(ethylsulfonyl)-4-piperidinyl]-1H-indole-7-carboxamide trifluoroacetate], the IC50 is ≤ 1.5 µM in test [1] and ≤ 10 µM in test [2].

Turning to `CCS(=O)(=O)N1CCC(c2c[nH]c3c(C(N)=O)cc(-c4coc(CNCC(C)C)c4)cc23)CC1` [Example 245, 3-[1-(ethylsulfonyl)-4-piperidinyl]-5-(5-{[(2-methylpropyl)amino]methyl}-3-furanyl)-1H-indole-7-carboxamide trifluoroacetate], the IC50 was ≤ 1.5 µM in test [1] and ≤ 10 µM in test [2].

With `CCS(=O)(=O)N1CCC(c2c[nH]c3c(C(N)=O)cc(-c4coc(CNCC5CCCC5)c4)cc23)CC1` [Example 246, 5-(5-{[(cyclopentylmethyl)amino]methyl}-3-furanyl)-3-[1-(ethylsulfonyl)-4-piperidinyl]-1H-indole-7-carboxamide trifluoroacetate], the figures for the IC50 in test [1] and in test [2] were ≤ 1.5 µM and ≤ 10 µM, respectively.

In the case of `CCS(=O)(=O)N1CCC(c2c[nH]c3c(C(N)=O)cc(-c4coc(CN5CCCC5)c4)cc23)CC1` [Example 247, 3-[1-(ethylsulfonyl)-4-piperidinyl]-5-[5-(1-pyrrolidinylmethyl)-3-furanyl]-1H-indole-7-carboxamide trifluoroacetate], the IC50 was ≤ 1.5 µM in test [1] and ≤ 10 µM in test [2].

Turning to `CCN(CC)Cc1cc(-c2cc(C(N)=O)c3[nH]cc(C4CCN(S(=O)(=O)CC)CC4)c3c2)co1` [Example 248, 5-{5-[(diethylamino)methyl]-3-furanyl}-3-[1-(ethylsulfonyl)-4-piperidinyl]-1H-indole-7-carboxamide trifluoroacetate], the figures for the IC50 in test [1] and in test [2] were ≤ 1.5 µM and ≤ 10 µM, respectively.

For `CCS(=O)(=O)N1CCC(c2c[nH]c3c(C(N)=O)cc(-c4ncc(CN5CCCC5)s4)cc23)CC1` [Example 249, 3-[1-(ethylsulfonyl)-4-piperidinyl]-5-[5-(1-pyrrolidinylmethyl)-1,3-thiazol-2-yl]-1H-indole-7-carboxamide trifluoroacetate], the IC50 was > 1 µM in test [1] and ≤ 10 µM in test [2].

On to `CCS(=O)(=O)N1CCC(c2c[nH]c3c(C(N)=O)cc(-c4csc(C(C(C)C)N5CCCC5)c4)cc23)CC1` (centres unmarked) [Example 250, 3-[1-(ethylsulfonyl)-4-piperidinyl]-5-{5-[2-methyl-1-(1-pyrrolidinyl)propyl]-3-thienyl}-1H-indole-7-carboxamide trifluoroacetate], for which the values for the IC50 in test [1] and in test [2] were ≤ 1.5 µM and ≤ 10 µM, respectively.

`CCS(=O)(=O)N1CCC(c2c[nH]c3c(C(N)=O)cc(-c4nc(CN5CCCC5)cs4)cc23)CC1` [Example 251, 3-[1-(ethylsulfonyl)-4-piperidinyl]-5-[4-(1-pyrrolidinylmethyl)-1,3-thiazol-2-yl]-1H-indole-7-carboxamide trifluoroacetate]: the IC50 in test [1] is ≤ 1.5 µM; in test [2], ≤ 10 µM.

As to `CCS(=O)(=O)N1CCC(c2c[nH]c3c(C(N)=O)cc(-c4cnn(CCN5CCCC5)c4)cc23)CC1` [Example 253, 3-[1-(ethylsulfonyl)-4-piperidinyl]-5-{1-[2-(1-pyrrolidinyl)ethyl]-1H-pyrazol-4-yl}-1H-indole-7-carboxamide trifluoroacetate], the IC50 in test [1] was > 1 µM; in test [2] it was ≤ 10 µM.

As to `CCS(=O)(=O)N1CCC(c2c[nH]c3c(C(N)=O)cc(-c4cnn(CCN5CCOCC5)c4)cc23)CC1` [Example 254, 3-[1-(ethylsulfonyl)-4-piperidinyl]-5-{1-[2-(4-morpholinyl)ethyl]-1H-pyrazol-4-yl}-1H-indole-7-carboxamide trifluoroacetate], the figures for the IC50 in test [1] and in test [2] were > 1 µM and ≤ 10 µM, respectively.

As to `CCS(=O)(=O)N1CCC(c2c[nH]c3c(C(N)=O)cc(-c4cnn(CCNCCO)c4)cc23)CC1` [Example 255, 3-[1-(ethylsulfonyl)-4-piperidinyl]-5-(1-{2-[(2-hydroxyethyl)amino]ethyl}-1H-pyrazol-4-yl)-1H-indole-7-carboxamide trifluoroacetate], the IC50 was > 1 µM in test [1] and ≤ 10 µM in test [2].

For the compound `CCCCNCCn1cc(-c2cc(C(N)=O)c3[nH]cc(C4CCN(S(=O)(=O)CC)CC4)c3c2)cn1` [Example 256, 5-{1-[2-(butylamino)ethyl]-1H-pyrazol-4-yl}-3-[1-(ethylsulfonyl)-4-piperidinyl]-1H-indole-7-carboxamide trifluoroacetate], the figures for the IC50 in test [1] and in test [2] were > 1 µM and ≤ 10 µM, respectively.

Consider `CCS(=O)(=O)N1CCC(c2c[nH]c3c(C(N)=O)cc(-c4cnn(CCNC5CCC5)c4)cc23)CC1` [Example 257, 5-{1-[2-(cyclobutylamino)ethyl]-1H-pyrazol-4-yl}-3-[1-(ethylsulfonyl)-4-piperidinyl]-1H-indole-7-carboxamide trifluoroacetate], for which the results for the IC50 in test [1] and in test [2] were > 1 µM and ≤ 10 µM, respectively.

On to `CCN(CC)CCNCCn1cc(-c2cc(C(N)=O)c3[nH]cc(C4CCN(S(=O)(=O)CC)CC4)c3c2)cn1` [Example 258, 5-[1-(2-{[2-(diethylamino)ethyl]amino}ethyl)-1H-pyrazol-4-yl]-3-[1-(ethylsulfonyl)-4-piperidinyl]-1H-indole-7-carboxamide trifluoroacetate], for which the figures for the IC50 in test [1] and in test [2] were > 1 µM and ≤ 10 µM, respectively.

Turning to `CCS(=O)(=O)N1CCC(c2c[nH]c3c(C(N)=O)cc(-c4cnn(CCNC(C)C)c4)cc23)CC1` [Example 259, 3-[1-(ethylsulfonyl)-4-piperidinyl]-5-(1-{2-[(1-methylethyl)amino]ethyl}-1H-pyrazol-4-yl)-1H-indole-7-carboxamide trifluoroacetate], the figures for the IC50 in test [1] and in test [2] were > 1 µM and ≤ 10 µM, respectively.

`CCS(=O)(=O)N1CCC(c2c[nH]c3c(C(N)=O)cc(-c4cnn(CCNCC(C)C)c4)cc23)CC1` [Example 260, 3-[1-(ethylsulfonyl)-4-piperidinyl]-5-(1-{2-[(2-methylpropyl)amino]ethyl}-1H-pyrazol-4-yl)-1H-indole-7-carboxamide trifluoroacetate]: the results for the IC50 in test [1] and in test [2] were > 1 µM and ≤ 10 µM, respectively.

For `CCS(=O)(=O)N1CCC(c2c[nH]c3c(C(N)=O)cc(-c4ccc(OC)c(CN5CCCC5)c4)cc23)CC1` [Example 262, 3-[1-(ethylsulfonyl)-4-piperidinyl]-5-[4-(methyloxy)-3-(1-pyrrolidinylmethyl)phenyl]-1H-indole-7-carboxamide trifluoroacetate], the values for the IC50 in test [1] and in test [2] were > 1 µM and ≤ 10 µM, respectively.

On to `CCS(=O)(=O)N1CCC(c2c[nH]c3c(C(N)=O)cc(-c4ccc(F)c(CNC)c4)cc23)CC1` [Example 269, 3-[1-(ethylsulfonyl)-4-piperidinyl]-5-{4-fluoro-3-[(methylamino)methyl]phenyl}-1H-indole-7-carboxamide trifluoroacetate], for which the IC50 in test [1] is ≤ 1.5 µM; in test [2], ≤ 10 µM.
